Experiments:
[1] = test system: Cd1^83 (RNA, riboswitch) GGAAACUAAAUAGGCAAAUCUAGAGAAAUCUAGUGACGCAAAGCUAUAGGGACUAAGGUUUAUAUACAUAAACUAUGUCAGCCAG; experiment: ITC; conditions: 120 mM NaCl, 8 mM MgCl2 (RNA wash buffer); 50 mM Bis-Tris pH 6.1; individual ITC conditions in SI Figures S11/S12
[2] = test system: Cd1^86 (RNA, riboswitch) GGAAACUAAAUAGGCAAAUCUAGAGAAAUCUAGUGACGCAAAGCUAUAGGGACUAAGGUUUAUAUACAUAAACUAUGUCAGCCAGUUG; experiment: ITC; conditions: 120 mM NaCl, 8 mM MgCl2 (RNA wash buffer); 50 mM Bis-Tris pH 6.1; individual ITC conditions in SI Figures S11/S12
[3] = test system: Cd1^87 (RNA, riboswitch) GGAAACUAAAUAGGCAAAUCUAGAGAAAUCUAGUGACGCAAAGCUAUAGGGACUAAGGUUUAUAUACAUAAACUAUGUCAGCCAGUUGC; experiment: ITC; conditions: 120 mM NaCl, 8 mM MgCl2 (RNA wash buffer); 50 mM Bis-Tris pH 6.1; individual ITC conditions in SI Figures S11/S12
[4] = test system: Cd1^88 (RNA, riboswitch) GGAAACUAAAUAGGCAAAUCUAGAGAAAUCUAGUGACGCAAAGCUAUAGGGACUAAGGUUUAUAUACAUAAACUAUGUCAGCCAGUUGCC; experiment: ITC; conditions: 120 mM NaCl, 8 mM MgCl2 (RNA wash buffer); 50 mM Bis-Tris pH 6.1; individual ITC conditions in SI Figures S11/S12
[5] = test system: Cd1^135 (RNA, riboswitch) GGAAACUAAAUAGGCAAAUCUAGAGAAAUCUAGUGACGCAAAGCUAUAGGGACUAAGGUUUAUAUACAUAAACUAUGUCAGCCAGUUGCCAAAAAGAGUCCUAGGUGUAUUGUAUACCUAAGAAAAGUCUAUAAUGA; experiment: ITC; conditions: 120 mM NaCl, 8 mM MgCl2 (RNA wash buffer); 50 mM Bis-Tris pH 6.1; individual ITC conditions in SI Figures S11/S12
[6] = test system: Cd1^146 (RNA, riboswitch) GGAAACUAAAUAGGCAAAUCUAGAGAAAUCUAGUGACGCAAAGCUAUAGGGACUAAGGUUUAUAUACAUAAACUAUGUCAGCCAGUUGCCAAAAAGAGUCCUAGGUGUAUUGUAUACCUAAGAAAAGUCUAUAAUGACUGCCUUUUUG; experiment: ITC; conditions: 120 mM NaCl, 8 mM MgCl2 (RNA wash buffer); 50 mM Bis-Tris pH 6.1; individual ITC conditions in SI Figures S11/S12
[7] = test system: Cd1^88 C81A (RNA, riboswitch) GGAAACUAAAUAGGCAAAUCUAGAGAAAUCUAGUGACGCAAAGCUAUAGGGACUAAGGUUUAUAUACAUAAACUAUGUCAGCAAGUUGCC; experiment: 1H NMR reporter peaks; conditions: 110 mM NaCl, MgCl2 at 40 equiv. over RNA; 50 mM Bis-Tris, 5-10% D2O
[8] = test system: Cd1^88 A24-26U (RNA, riboswitch) GGAAACUAAAUAGGCAAAUCUAGAGUUUUCUAGUGACGCAAAGCUAUAGGGACUAAGGUUUAUAUACAUAAACUAUGUCAGCCAGUUGCC; experiment: 1H NMR reporter peaks; conditions: 110 mM NaCl, MgCl2 at 40 equiv. over RNA; 50 mM Bis-Tris, 5-10% D2O
[9] = test system: Cd1^80 (RNA, riboswitch) GGAAACUAAAUAGGCAAAUCUAGAGAAAUCUAGUGACGCAAAGCUAUAGGGACUAAGGUUUAUAUACAUAAACUAUGUCAGC; experiment: 1H NMR reporter peaks; conditions: 110 mM NaCl, MgCl2 at 40 equiv. over RNA; 50 mM Bis-Tris, 5-10% D2O
[10] = test system: Cd1^81 (RNA, riboswitch) GGAAACUAAAUAGGCAAAUCUAGAGAAAUCUAGUGACGCAAAGCUAUAGGGACUAAGGUUUAUAUACAUAAACUAUGUCAGCC; experiment: 1H NMR reporter peaks; conditions: 110 mM NaCl, MgCl2 at 40 equiv. over RNA; 50 mM Bis-Tris, 5-10% D2O
[11] = test system: Cd1^82 (RNA, riboswitch) GGAAACUAAAUAGGCAAAUCUAGAGAAAUCUAGUGACGCAAAGCUAUAGGGACUAAGGUUUAUAUACAUAAACUAUGUCAGCCA; experiment: 1H NMR reporter peaks; conditions: 110 mM NaCl, MgCl2 at 40 equiv. over RNA; 50 mM Bis-Tris, 5-10% D2O
[12] = test system: Cd1^88 C87A (RNA, riboswitch) GGAAACUAAAUAGGCAAAUCUAGAGAAAUCUAGUGACGCAAAGCUAUAGGGACUAAGGUUUAUAUACAUAAACUAUGUCAGCCAGUUGAC; experiment: 1H NMR reporter peaks; conditions: 110 mM NaCl, MgCl2 at 40 equiv. over RNA; 50 mM Bis-Tris, 5-10% D2O
[13] = test system: Cd1^88 C88A (RNA, riboswitch) GGAAACUAAAUAGGCAAAUCUAGAGAAAUCUAGUGACGCAAAGCUAUAGGGACUAAGGUUUAUAUACAUAAACUAUGUCAGCCAGUUGCA; experiment: 1H NMR reporter peaks; conditions: 110 mM NaCl, MgCl2 at 40 equiv. over RNA; 50 mM Bis-Tris, 5-10% D2O
[14] = test system: Cd1^88 G11A (RNA, riboswitch) GGAAACUAAAUAAGCAAAUCUAGAGAAAUCUAGUGACGCAAAGCUAUAGGGACUAAGGUUUAUAUACAUAAACUAUGUCAGCCAGUUGCC; experiment: 1H NMR reporter peaks; conditions: 110 mM NaCl, MgCl2 at 40 equiv. over RNA; 50 mM Bis-Tris, 5-10% D2O
[15] = test system: Cd1^88 G11C (RNA, riboswitch) GGAAACUAAAUACGCAAAUCUAGAGAAAUCUAGUGACGCAAAGCUAUAGGGACUAAGGUUUAUAUACAUAAACUAUGUCAGCCAGUUGCC; experiment: 1H NMR reporter peaks; conditions: 110 mM NaCl, MgCl2 at 40 equiv. over RNA; 50 mM Bis-Tris, 5-10% D2O
[16] = test system: Cd1^148 (RNA, riboswitch) GGAAACUAAAUAGGCAAAUCUAGAGAAAUCUAGUGACGCAAAGCUAUAGGGACUAAGGUUUAUAUACAUAAACUAUGUCAGCCAGUUGCCAAAAAGAGUCCUAGGUGUAUUGUAUACCUAAGAAAAGUCUAUAAUGACUGCCUUUUUGGC; experiment: 2D 1H/15N correlation NMR; conditions: 110 mM NaCl, MgCl2 at 40 equiv. over RNA; 50 mM Bis-Tris, 5-10% D2O
[17] = test system: Cd1^149 (RNA, riboswitch) GGAAACUAAAUAGGCAAAUCUAGAGAAAUCUAGUGACGCAAAGCUAUAGGGACUAAGGUUUAUAUACAUAAACUAUGUCAGCCAGUUGCCAAAAAGAGUCCUAGGUGUAUUGUAUACCUAAGAAAAGUCUAUAAUGACUGCCUUUUUGGCA; experiment: 2D 1H/15N correlation NMR; conditions: 110 mM NaCl, MgCl2 at 40 equiv. over RNA; 50 mM Bis-Tris, 5-10% D2O
[18] = test system: Cd1^147 (RNA, riboswitch) GGAAACUAAAUAGGCAAAUCUAGAGAAAUCUAGUGACGCAAAGCUAUAGGGACUAAGGUUUAUAUACAUAAACUAUGUCAGCCAGUUGCCAAAAAGAGUCCUAGGUGUAUUGUAUACCUAAGAAAAGUCUAUAAUGACUGCCUUUUUGG; experiment: 2D 1H/15N correlation NMR; conditions: 110 mM NaCl, MgCl2 at 40 equiv. over RNA; 50 mM Bis-Tris, 5-10% D2O

Nc1nc2c(ncn2[C@@H]2O[C@@H]3COP(=O)(O)O[C@H]4[C@@H](O)[C@H](n5cnc6c(=O)[nH]c(N)nc65)O[C@@H]4COP(=O)(O)O[C@H]3[C@H]2O)c(=O)[nH]1
KD [1]: > >100 μM | KD [2]: 35000 ± 10000 nM | KD [3]: 1900 ± 100 nM | KD [4]: 250 ± 40 nM | KD [5]: 600 ± 30 nM | KD [6]: 7000 ± 2000 nM | binding [7]: no | binding [8]: no | binding [9]: no | binding [10]: no | binding [11]: no | binding [12]: weak | binding [13]: yes | binding [14]: yes | binding [15]: yes | binding [16]: no | binding [17]: no | binding [18]: yes

Reference: PMC9262584 (2022)
